Patent US20260124214A1, “HETEROCYCLIC COMPOUNDS FOR USE IN THE TREATMENT OF CANCER” (ARTIOS PHARMA LIMITED, priority 2021, published 2026)
Counter-ions that a name gives are not always drawn.

Biological target: T1, Human Polθ polymerase domain (aa1820-2590) (Homo sapiens, UniProt O75417)
T1 construct: Human Polθ polymerase domain (aa1820-2590) was expressed in E. Coli; made in house; host or cells: E. coli
T1 sequence (O75417 1820-2590): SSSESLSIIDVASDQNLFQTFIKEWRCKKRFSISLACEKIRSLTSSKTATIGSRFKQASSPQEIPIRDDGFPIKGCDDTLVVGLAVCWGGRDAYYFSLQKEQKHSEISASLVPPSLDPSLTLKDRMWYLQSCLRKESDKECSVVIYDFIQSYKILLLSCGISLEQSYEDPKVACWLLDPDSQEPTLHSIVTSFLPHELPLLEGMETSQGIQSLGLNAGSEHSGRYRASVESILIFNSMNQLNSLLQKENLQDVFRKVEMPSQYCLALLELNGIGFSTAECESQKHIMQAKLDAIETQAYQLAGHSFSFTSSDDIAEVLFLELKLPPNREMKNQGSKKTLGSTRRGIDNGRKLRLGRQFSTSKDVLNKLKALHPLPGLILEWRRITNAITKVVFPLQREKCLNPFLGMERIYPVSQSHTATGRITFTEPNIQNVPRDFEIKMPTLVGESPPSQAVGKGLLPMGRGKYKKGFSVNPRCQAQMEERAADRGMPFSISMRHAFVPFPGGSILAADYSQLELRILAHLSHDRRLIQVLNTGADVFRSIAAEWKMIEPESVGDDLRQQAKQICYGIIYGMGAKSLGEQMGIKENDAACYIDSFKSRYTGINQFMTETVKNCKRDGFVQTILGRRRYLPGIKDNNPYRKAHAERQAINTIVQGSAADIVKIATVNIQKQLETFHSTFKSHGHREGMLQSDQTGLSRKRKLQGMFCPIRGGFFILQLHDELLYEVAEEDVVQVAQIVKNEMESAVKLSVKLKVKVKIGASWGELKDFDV
Experiment: Polθ Polymerase Domain WT KI Assay (PicoGreen)
Format: biochemical
Conditions: 100 nM DNA substrate, 0.156 nM Polθ, initial rates vs inhibitor concentration
Procedure, shortened: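 E. coli-expressed human Polθ polymerase domain (aa1820-2590) on annealed DNA II Short/Long primer-template (1.2:1), in 25 mM Tris pH 7.5, NaCl, 5% glycerol, 0.01% Triton X-100, 0.1 mg/ml BSA, 1 mM DTT, 1% DMSO. EDTA-quenched timepoints to 180 min, PicoGreen fluorescence. Initial rates vs inhibitor concentration fitted four-parameter for KI.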

| Ki [nM] | SMILES |
| --- | --- |
| 0.431 | Cc1cc(C(F)(F)F)cc(N2C(=O)C[C@@H]3CN(Cc4nc5n(c4C)CCN(C)C5)c4c(C)cccc4N(C)C(=O)[C@H]32)n1 [Example 82, (3aR,11aS)-5-((3,7-Dimethyl-5,6,7,8-tetrahydroimidazo[1,2-a]pyrazin-2-yl)methyl)-6,10-dimethyl-1-(6-methyl-4-(trifluoromethyl)pyridin-2-yl)-1,3a,4,5,10,11a-hexahydro-2H-benzo[b]pyrrolo[2,3-f][1,4]diazocine-2,11(3H)-dione] |
| 4.14 | Cc1cc(C(F)(F)F)cc(N2C(=O)C[C@@H]3CN(CC4COCCN4)c4c(C)cccc4N(C)C(=O)[C@H]32)n1 (single isomer, unassigned) [Example 112a] |
| 2.46 | Cc1cc(C(F)(F)F)cc(N2C(=O)C[C@@H]3CN(CC(O)CN4CCOCC4)c4c(Cl)cccc4N(C)C(=O)[C@H]32)n1 (single isomer, unassigned) [Example 133b] |
| 1.3 | Cc1cc(C(F)(F)F)cc(N2C(=O)C[C@@H]3CN(CC4CCN(CCF)CC4)c4c(Cl)cccc4N(C)C(=O)[C@H]32)n1 [Example 86, (3aR,11aS)-6-Chloro-5-((1-(2-fluoroethyl)piperidin-4-yl)methyl)-10-methyl-1-(6-methyl-4-(trifluoromethyl)pyridin-2-yl)-1,3a,4,5,10,11a-hexahydro-2H-benzo[b]pyrrolo[2,3-f][1,4]diazocine-2,11(3H)-dione] |
| 1.82 | Cc1cc(C(F)(F)F)cc(N2C(=O)C[C@@H]3CN(CCN4CCOCC4)c4c(Cl)cccc4N(C)C(=O)[C@H]32)n1 [Example 20, (3aR,11aS)-6-Chloro-10-methyl-1-(6-methyl-4-(trifluoromethyl)pyridin-2-yl)-5-(2-morpholinoethyl)-1,3a,4,5,10,11a-hexahydro-2H-benzo[b]pyrrolo[2,3-f][1,4]diazocine-2,11(3H)-dione] |
| 1.23 | Cc1cc(C(F)(F)F)cc(N2C(=O)C[C@@H]3CN(CCCN4CCN(C)CC4)c4c(Cl)cccc4N(C)C(=O)[C@H]32)n1 [Example 129, (3aR,11aS)-6-Chloro-10-methyl-1-(6-methyl-4-(trifluoromethyl)pyridin-2-yl)-5-(3-(4-methylpiperazin-1-yl)propyl)-1,3a,4,5,10,11a-hexahydro-2H-benzo[b]pyrrolo[2,3-f][1,4]diazocine-2,11(3H)-dione] |
| 1.08 | Cc1cc(C(F)(F)F)cc(N2C(=O)C[C@@H]3CN(CC4COCCN4C)c4c(Cl)cccc4N(C)C(=O)[C@H]32)n1 (single isomer, unassigned) [Example 119b] |
| 1.74 | Cc1cc(C(F)(F)F)cc(N2C(=O)C[C@@H]3CN(CCN4CCS(=O)(=O)CC4)c4c(Cl)cccc4N(C)C(=O)[C@H]32)n1 [Example 37, (3aR,11aS)-6-Chloro-5-(2-(1,1-dioxidothiomorpholino)ethyl)-10-methyl-1-(6-methyl-4-(trifluoromethyl)pyridin-2-yl)-1,3a,4,5,10,11a-hexahydro-2H-benzo[b]pyrrolo[2,3-f][1,4]diazocine-2,11(3H)-dione] |
| 8.57 | Cc1cc(C(F)(F)F)cc(N2C(=O)C[C@@H]3CN(CC4CCCCN4)c4c(Cl)cccc4N(C)C(=O)[C@H]32)n1 (single isomer, unassigned) [Example 105a] |
| 97 | Cc1cc(C(F)(F)F)cc(N2C(=O)C[C@@H]3CN(c4ccc5ccn(C)c5n4)c4c(F)cccc4N(C)C(=O)[C@H]32)n1 [Example 143, (3aR,11aS)-6-Fluoro-10-methyl-5-(1-methyl-1H-pyrrolo[2,3-b]pyridin-6-yl)-1-(6-methyl-4-(trifluoromethyl)pyridin-2-yl)-1,3a,4,5,10,11a-hexahydro-2H-benzo[b]pyrrolo[2,3-f][1,4]diazocine-2,11(3H)-dione] |
| 3.12 | Cc1cc(C(F)(F)F)cc(N2C(=O)C[C@@H]3CN(CCN4CC[C@@H](O)C4)c4c(C)cccc4N(C)C(=O)[C@H]32)n1 [Example 56, (3aR,11aS)-5-(2-((R)-3-Hydroxypyrrolidin-1-yl)ethyl)-6,10-dimethyl-1-(6-methyl-4-(trifluoromethyl)pyridin-2-yl)-1,3a,4,5,10,11a-hexahydro-2H-benzo[b]pyrrolo[2,3-f][1,4]diazocine-2,11(3H)-dione] |
| 1.79 | Cc1cc(C(F)(F)F)cc(N2C(=O)C[C@@H]3CN(CCN4CCC(F)(F)CC4)c4c(Cl)cccc4N(C)C(=O)[C@H]32)n1 [Example 22, (3aR,11aS)-6-Chloro-5-(2-(4,4-difluoropiperidin-1-yl)ethyl)-10-methyl-1-(6-methyl-4-(trifluoromethyl)pyridin-2-yl)-1,3a,4,5,10,11a-hexahydro-2H-benzo[b]pyrrolo[2,3-f][1,4]diazocine-2,11(3H)-dione] |
| 7.92 | Cc1cc(C(F)(F)F)cc(N2C(=O)C[C@@H]3CN(Cc4ccc(C5CCCN5C)cc4)c4c(F)cccc4N(C)C(=O)[C@H]32)n1 (single isomer, unassigned) [Example 125a, hydrochloride] |
| 0.564 | Cc1cc(C(F)(F)F)cc(N2C(=O)C[C@@H]3CN(CCN4CCN[C@@H](C)C4)c4c(C)cccc4N(C)C(=O)[C@H]32)n1 [Example 57, (3aR,11aS)-6,10-Dimethyl-1-(6-methyl-4-(trifluoromethyl)pyridin-2-yl)-5-(2-((S)-3-methylpiperazin-1-yl)ethyl)-1,3a,4,5,10,11a-hexahydro-2H-benzo[b]pyrrolo[2,3-f][1,4]diazocine-2,11(3H)-dione dihydrochloride] |
| 2.48 | Cc1cc(C(F)(F)F)cc(N2C(=O)C[C@@H]3CN(Cc4ccc([C@@H]5CCCN5C)cc4)c4c(F)cccc4N(C)C(=O)[C@H]32)n1 (racemic) [Example 125b, (3aR,11aS)-6-Fluoro-10-methyl-1-(6-methyl-4-(trifluoromethyl)pyridin-2-yl)-5-(4-((S/R)-1-methylpyrrolidin-2-yl)benzyl)-1,3a,4,5,10,11a-hexahydro-2H-benzo[b]pyrrolo[2,3-f][1,4]diazocine-2,11(3H)-dione] |
| 0.882 | Cc1cc(C(F)(F)F)cc(N2C(=O)C[C@@H]3CN(C[C@H]4CCN(C)[C@H](C)C4)c4c(Cl)cccc4N(C)C(=O)[C@H]32)n1 (single isomer, unassigned) [Example 126c] |
| 6.14 | Cc1cc(C(F)(F)F)cc(N2C(=O)C[C@@H]3CN(CC(O)CN(C)C)c4c(Cl)cccc4N(C)C(=O)[C@H]32)n1 (single isomer, unassigned) [Example 132b] |
| 1.78 | Cc1cc(C(F)(F)F)cc(N2C(=O)C[C@@H]3CN(CCN4CCOC[C@H]4C)c4c(Cl)cccc4N(C)C(=O)[C@H]32)n1 [Example 24, (3aR,11aS)-6-Chloro-10-methyl-1-(6-methyl-4-(trifluoromethyl)pyridin-2-yl)-5-(2-((R)-3-methylmorpholino)ethyl)-1,3a,4,5,10,11a-hexahydro-2H-benzo[b]pyrrolo[2,3-f][1,4]diazocine-2,11(3H)-dione] |
| 4.14 | Cc1cc(C(F)(F)F)cc(N2C(=O)C[C@@H]3CN(C[C@@H]4CN(C)CCO4)c4c(Cl)cccc4N(C)C(=O)[C@H]32)n1 (racemic) [Example 120b, (3aR,11aS)-6-Chloro-10-methyl-1-(6-methyl-4-(trifluoromethyl)pyridin-2-yl)-5-(((S/R)-4-methylmorpholin-2-yl)methyl)-1,3a,4,5,10,11a-hexahydro-2H-benzo[b]pyrrolo[2,3-f][1,4]diazocine-2,11(3H)-dione hydrochloride] |
| 4.09 | Cc1cc(C(F)(F)F)cc(N2C(=O)C[C@@H]3CN(C[C@@H]4CCCCN4C)c4c(Cl)cccc4N(C)C(=O)[C@H]32)n1 (racemic) [Example 117b, (3aR,11aS)-6-Chloro-10-methyl-1-(6-methyl-4-(trifluoromethyl)pyridin-2-yl)-5-(((S/R)-1-methylpiperidin-2-yl)methyl)-1,3a,4,5,10,11a-hexahydro-2H-benzo[b]pyrrolo[2,3-f][1,4]diazocine-2,11(3H)-dione] |
| 1.87 | Cc1cc(C(F)(F)F)cc(N2C(=O)C[C@@H]3CN(CCN4CCNCC4)c4c(Cl)cccc4N(C)C(=O)[C@H]32)n1 [Example 19, (3aR,11aS)-6-Chloro-10-methyl-1-(6-methyl-4-(trifluoromethyl)pyridin-2-yl)-5-(2-(piperazin-1-yl)ethyl)-1,3a,4,5,10,11a-hexahydro-2H-benzo[b]pyrrolo[2,3-f][1,4]diazocine-2,11(3H)-dione] |
| 3.62 | Cc1cc(C(F)(F)F)cc(N2C(=O)C[C@@H]3CN(CCN4CCOCC4)c4c(C)cccc4NC(=O)[C@H]32)n1 [Example 147, (3aR,11aS)-6-Methyl-1-(6-methyl-4-(trifluoromethyl)pyridin-2-yl)-5-(2-morpholinoethyl)-1,3a,4,5,10,11a-hexahydro-2H-benzo[b]pyrrolo[2,3-f][1,4]diazocine-2,11(3H)-dione] |
